The results in this text go back to US12310365B2 (priority 2009, dated 2025).

Where a name gives a salt, the structure may show the parent alone. Read-outs that look alike come from different tables or passages of the source.

Common to all, as to type: in vivo
In test [1] the test system is Pseudoperonospora cubensis. In words: Cucumber downy mildew preventive test. Particulars: Pseudoperonospora cubensis, topical, 168 h; for pest or weed control at 10 ppm: treatment concentration 10 ppm.
The subject of test [2] is Phytophthora infestans. In words: whole plant or invertebrate. To be noted: in Solanum lycopersicum, topical, 168 h, read-out: Control value.
Test [3] has as its system Phytophthora infestans. The test can be described thus: whole plant or invertebrate. Particulars: in Solanum lycopersicum, topical, 168 h, read-out: Control value. This is another data set of the same source.
The test system of test [4] is Pseudoperonospora cubensis. In words: Cucumber downy mildew curative test. Particulars: Pseudoperonospora cubensis, topical, 168 h, single ingredient; for pest or weed control at 10 ppm: treatment concentration 10 ppm.
Test [5] has as its system Sphaerotheca fuliginea. In words: Cucumber powdery mildew preventive test. To be noted: Podosphaera fuliginea, topical, 168 h; treatment concentration 10 ppm.
Test [6] relates to Sphaerotheca fuliginea. The test can be described thus: Cucumber powdery mildew curative test. Particulars: Podosphaera fuliginea, topical, 168 h; treatment concentration 10 ppm.
Test [7] has as its system Botrytis cinerea (Diethofencarb-resistant strain). The test can be described thus: Tomato gray mold preventive test (Diethofencarb-resistant strain). Particulars: Botrytis cinerea, topical, 48 h, read-out: Control value.
Test [8] relates to Pyricularia oryzae. The test can be described thus: whole plant or invertebrate. To be noted: topical, 168 h, read-out: Control value.
Test [9] concerns Pyricularia oryzae. The test can be described thus: whole plant or invertebrate. Particulars: topical, 168 h, read-out: Control value. This is another data set of the same source.
Where [10] appears, read: treatment concentration 160 ppm.

Turning to `N#Cc1c(Cl)c(Cl)c(Cl)c(C#N)c1Cl` [TPN, Chlorothalonil (TPN)], the pest or weed control at 40 ppm in [1] (treatment concentration 40 ppm) amounted to 60%; with Phytophthora infestans [2], 0%; with Phytophthora infestans [3] it was 0%; in [4] (treatment concentration 40 ppm) it was 83%.
On to `CC1(C)N=C(c2cnc3ccccc3c2)c2cccc(F)c2C1(C)C` [Compound A, 3-(5-fluoro-3,3,4,4-tetramethyl-3,4-dihydroisoquinolin-1-yl)quinoline], for which the pest or weed control at 10 ppm in test [1] was 20%; in the test with Sphaerotheca fuliginea [5], 50%; in the test on Phytophthora infestans [2], 0%; in the test with Sphaerotheca fuliginea [6], 67%; with Phytophthora infestans [3] it was 0%; in [7], 83%. The same compound registered a pest or weed control at 10 ppm in [4] of 17%.
As for `Cc1ccc(C(=O)NC[C@@H](NC(=O)OCc2ccccc2)C(C)C)cc1` [Compound 2008, Benzyl ((1S)-2-methyl-1-{[(4-methylbenzoyl)amino]methyl}propyl)carbamate], the pest or weed control at 5 ppm in the test on Pyricularia oryzae [8] came to 33%.
Take `Cc1ccc(C(=O)NC[C@@H](NC(=O)OC(C)C)C(F)(F)F)cc1` [Compound 2009, Isopropyl ((1R)-2,2,2-trifluoro-1-{[(4-methylbenzoyl)amino]methyl}ethyl)-carbamate]: the pest or weed control at 5 ppm in the test with Pyricularia oryzae [8] was 67%.
On to `CC1(C)N=C(c2cnc3ccccc3c2)c2ccccc2C1(F)F` [B, 3-(4,4-difluoro-3,3-dimethyl-3,4-dihydroisoquinolin-1-yl)quinoline], for which the pest or weed control at 10 ppm came out at 28% in [1]; 60% in the test with Sphaerotheca fuliginea [5]; 0% in the test on Phytophthora infestans [2]; 83% with Pyricularia oryzae [8]; 86% with Pyricularia oryzae [9]; 73% with Sphaerotheca fuliginea [6]. For the same compound, the pest or weed control at 10 ppm worked out at 0% in the test with Phytophthora infestans [3], 83% in [7] and 33% in test [4].
On to `CC1(C)N=C(c2cnc3ccccc3c2)c2cccc(F)c2C1(F)F` [C, 3-(4,4,5-trifluoro-3,3-dimethyl-3,4-dihydroisoquinolin-1-yl)quinoline], for which the pest or weed control at 10 ppm in [1] was 33%; in the test on Sphaerotheca fuliginea [5], 65%; in the test with Phytophthora infestans [2], 0%; in the test on Sphaerotheca fuliginea [6], 73%; in the test on Phytophthora infestans [3], 0%; in test [7] it was 80%. In [4], the pest or weed control at 10 ppm came to 33%.
On to `CCCOC(=O)NCCCN(C)C` [Propamocarb hydrochloride], for which the pest or weed control at 160 ppm came to 20% in test [1] (setting [10]), 0% in the test with Phytophthora infestans [2], 0% in the test with Phytophthora infestans [3] and 0% in [4] (setting [10]).
As for `CC(C)[C@@H](CNC(=O)c1cc2ccccc2o1)NC(=O)OCC(F)(F)F` [Compound 2006, 2,2,2-Trifluoroethyl ((1S)-1-{[(1-benzofuran-2-ylcarbonyl)amino]methyl}-2-methylpropyl)carbamate], the pest or weed control at 5 ppm in the test on Pyricularia oryzae [8] stood at 67%.
